# Experimental data: article PMC11530130, “Peripherally restricted PICK1 inhibitor mPD5 ameliorates pain behaviors in murine inflammatory and neuropathic pain models” (JCI Insight, 2024)
# “And” between values parts separate entries of the source, which are not always exact repeats. Equal values may be shown once.
# Columns and labels:
# [1] = Small-angle x-ray scattering (SAXS), core-shell micelle model; assay type: physicochemical
# Protocol: Peripherally restricted PICK1 inhibitor mPD5 ameliorates pain behaviors in murine inflammatory and neuropathic pain models.
# SUPPORTING INFORMATION: Supplemental Table 1+2.
# Supplemental Table 1. SAXS data collection and fitting table.
# Buffer 50 mM Tris, 125 mM NaCl, pH 7.4
# Extinction coefficient 11 000 M-1 cm-1
# Molecular weight 1874 g/mol
# Peptide concentration 0.19 - 9.37 mg/ml
# SAXS data collection details
# Instrument P12, Petra III, DESY [1]
# Absolute calibration Water
# Indirect Fourier Bayersapp.org transformations to obtain
# Data rebin WillItRebin [4] […]
# nmolec-hydrophilic [Å3] 2012 nmolec-hydrophobic [Å3] 377
# Rtotal [Å] 22.6 (corresponding to a hydrophilic shell thickness of Dshell=10.4 Å) […]
# [1] C. E. Blanchet, A. Spilotros, F. Schwemmer, M. A. Graewert, A. Kikhney, C. M. Jeffries, D. Franke, D. Mark, R. Zengerle, F.
# Cipriani, S. Fiedler, M. Roessle, D. I. Svergun, J Appl Crystallogr 2015, 48, 431.
# [2] S. Hansen, Journal of Applied Crystallography 2012, 45, 566.
# [3] S. Hansen, Journal of Applied Crystallography 2014, 47, 1469.
# [4] WillItFit MC Pedersen 2013. […]
# Small Angle X-ray Scattering (SAXS).
# Concentration series of mPD5 ranging from […] to 9.37 mg/mL was prepared in buffer containing 50 mM Tris-HCl (pH 7.4) and 125 mM NaCl. Samples were measured at the P12 SAXS Beamline, PetraIII, DESY, Hamburg Germany (2). Initial data processing including radial averaging and conversion of the data into absolute scaled scattering intensity, I(q), as a function of the scattering vector q, where q= 4π sin(θ)/λ (θ = half scattering angle, λ = x-ray wave length) was done using the standard software, procedures and settings at the beamline (2). The processed scattering data was merged, buffer subtracted, and binned using WillItRebin with a binning factor of 1.02. The modelling of the SAXS data was performed using a molecular constrained core-shell model for polydisperse spherical micelles. In brief, it was assumed that the peptide aggregated into polydisperse spherical micelles. Here, the hydrophobic tails form the core, and these are surrounded by the hydrophilic part (the shell) in a spherical micelle. For the modelling, total scattering lengths of 2.26e-10 cm and 2.96e-11 cm were used for the headgroups and tail, respectively. These were calculated by multiplying the […]
# electrons) by the scattering length of the electron which is just the classical electron radium of 2.82 fm. For the scattering length density calculations, it was assumed that the molecular volume of the C13 alkyl chain,nmolec-hydrophobic, was 377 Å3 as estimated by Tanfords empirical formula (V = 27.4 + 26.9n!) where nC denotes the number of carbons. i.e. 13 in this case (3).
# The hydrophilic headgroup,nmolec-hydrophilic, was as a first estimate assumed to have a mass density corresponding to that of a soluble protein (i.e. 1.35 g/cm3), this yielded a molecular volume of 2078 Å3. This value was then taken as a free parameter in the fits and refined to a molecular volume of ~2010 Å3 corresponding to a mass density of 1.39 g/cm3 and with very little variation over the fits to the different sample concentrations. Excess scattering length densities of the core and shell of the micelle were then calculated in relation to the scattering length density of water (9.4e10 1/cm2). Using this molecular constrained model, the volumes of the core and of the shell were coupled internally through the fitted aggregation number, Nagg and the implicit […]
# The relative polydispersity, srelative was described by a Gauss function of Nagg. The Gauss was truncated at ±3s. Through the fits, this value is refined to srelative values of the aggregation number at ~30% for the highest concentrations to up to 50% for the lowest concentrations. Note, however, that this variation in the particle volume translates to about 10%-15% variation of the particle radius. A full overview of the resulting fit-parameters is provided in Supplemental Table S1. As usual a small surface roughness (typical at the order of 2Å) and a small constant background were also […]
# [2] = tested on: mice, CFA model of inflammatory pain; experiment: CFA model, elevated plus maze; assay type: in vivo, mouse
# [3] = SAXS pair-distance distribution p(r)
# [4] = spherical core-shell model fit, average
structure (smiles),measurement,setting,value
"CCCCCCCCCCCCCC(=O)N(CCOCCOCCC(=O)N[C@@H](Cc1c[nH]cn1)C(=O)N[C@@H](Cc1c[nH]c2ccccc12)C(=O)N[C@@H](CC(C)C)C(=O)N[C@@H](CCCCN)C(=O)N[C@H](C(=O)O)C(C)C)CCOCCOCCC(=O)N[C@@H](Cc1c[nH]cn1)C(=O)N[C@@H](Cc1c[nH]c2ccccc12)C(=O)N[C@@H](CC(C)C)C(=O)N[C@@H](CCCCN)C(=O)N[C@H](C(=O)O)C(C)C [mPD5, myristoyl-NPEG4-(HWLKV)2]",Dmax,[1]; [3],approximately 50 Å
same,radius of gyration (Rg),[1]; [3],approximately 30 Å
same,"Nagg, core shell model fit of single samples","[1]; five samples of the series 0.19 - 9.37 mg/ml, concentration of each column not given",18.7 and 21.5 and 22.2 and 21.0 and 19.0
same,hydrophobic core radius (Rcore),[1]; [4],12.2 Å
same,shell thickness (Dshell),[1]; [4],10.4 Å
same,total radius (Rtotal),[1]; [4],22.6 Å
same,"time spent in open arms relative to sham, individual mice",[2]; 1 hour after s.c. 10 μmol/kg,105.738 and 52.6613 and 140.768 and 68.9703 and 55.3027 and 160.227 and 143.859 and 0 and 156.14 and 28.0701 and 63.1578
same,time spent in the open arms of the elevated plus maze,[2]; s.c. 10 μmol/kg,no longer significantly different from the naive mice
